# Results published in patent US20210046082A1, “CRYSTALLINE FORMS OF QUINOLINE ANALOGS AND SALTS THEREOF, COMPOSITIONS, AND THEIR METHODS FOR USE” (Senhwa Biosciences, Inc., priority 2019, published 2021).
# Experiments:
# [1] = Polymorph conversion on heating in MeOH/PPW (3:1) under neutral conditions; format: physicochemical; conditions: about 60-65° C., 6 hours instead of 4
# Procedure: In the procedure discussed in Example 1, the wet cake obtained in the Neutralization/Polymorph Formation step was vacuum dried at no more than 65° C. Then the dried Compound I (dried wet cake) was dissolved in DCM/MeOH (3/1, v/v) and purified on silica gel column eluting with DCM/MeOH (3/1, v/v). The fractions containing Compound I was collected and passed through an in-line filter. Then Compound I was precipitated from DCM/MeOH via solvent-swap with MeOH (under vacuum with the jacket temperature of no more than 30C). After the DCM was distilled off, Compound I in MeOH was filtered and the wet cake was washed with methanol. The wet cake was vacuum dried at no more than 65° C. Then the dried Compound I, which existed in Polymorph E, was stirred in MeOH/PPW (3:1) and heated at about 60° C. to about 65° C. for 4 hours. Then the temperature was cooled down to 20° C. to 30° C. and stirred at that temperature for no longer than 1 hour. […] In the final heating step, if the mixture is heated for 6 hours instead of 4 hours, Polymorph A was observed.
# It is believed that Polymorph K was transformed from Polymorph E under neutral conditions. […] Thus, without bound to be any theory, Polymorph K is believe to be a metastable form between Polymorphs E and A.
# [2] = Stability test at 25° C./60% RH for 18 months (XRPD, DSC); format: physicochemical
# Procedure: Further, stability of Polymorph J was analyzed in solution having the composition:
# Sample Preparation: 37.5 kg of WFI was added to the compounding vessel at a temperature in the range of 15 to 30° C. Vigorously sparge WFI with nitrogen for no less than 30 minutes by placing the nitrogen sparging tubing at the bottom of the pressure vessel. Continue sparging in the vessel until dissolved oxygen content was <1 ppm. In a second pressure vessel was added 20.0 kg nitrogen sparged WFI and sucrose and mixed until dissolved while continuing nitrogen sparging, not less than 15 minutes. Nitrogen sparging continued as necessary until dissolved oxygen content was <1 ppm of the sucrose solution. To the sucrose solution, 813.8 g of 2 M HCl solution was slowly added and mixed for no less than 10 minutes after addition was complete. Add Compound I into the sucrose solution vessel and rinse container that contained Compound I with nitrogen sparged WFI. Mix solution until dissolved (no less than 15 min). Add 43.5 mL of 2 M HCl and mix for no less than 5 minutes. If solution is not visually dissolved, add another portion of 43.5 mL of 2M HCl and mix for no less than 5 minutes. Adjust pH, if necessary to 4.4-4.6 with 2M HCl or 1M NaOH solution prepared using nitrogen sparged WFI. Mix solution after each addition of 2M HCl or 1M NaOH. Adjust volume with nitrogen-sparged WFI as necessary. Pull a 10 mL sample to measure pH. If necessary, re-adjust pH to 4.4-4.6 using 2M HCl or 1M NaOH solution prepared using nitrogen sparged WFI. Filtration and filling directly proceeded this step. No material was stored overnight. […]
# Aseptic filling of the sterile solution: The Compound I sterile solution was filled into 20-cc clean, de-pyrogenated glass vials, with periodic weight checks to assure that the target fill quantity (5.05 g/vial) was maintained, and the vials were semi-stoppered with sterile elastomeric closures to provide the sample for stability analysis.
# The sample was stored at 25° C. in 60% relative humidity (RH) for 18 months. After 18 months, the sample was analyzed by XRPD and DSC (see FIGS. 10 and 11).
# [3] = Polymorphic equilibrium and transformation study in MeOH/PPW at 65° C. (XRPD); format: physicochemical
# Procedure: Polymorphic equilibrium studies were performed using Compound I Polymorph A and Compound I Polymorph J. To a 3-neck 250 mL flask equipped with a 3 cm stir bar and N2 inlet, a 1:1 mixture of Compound I Polymorph A (5 g) and Compound I Polymorph J (5 g, sample shown in FIG. 1), MeOH (112.5 mL, 11.25 vol) and purified process water (PPW, 37.5 mL, 3.75 vol) were charged. The resulting mixture was stirred at room temperature for 10 min, and then heated to 65° C. and sampled at 2 hrs, 4 hrs, and 6 hrs and analyzed by XRPD analysis as shown in FIG. 7.
# A polymorphic transformation study was also performed. To a 20 mL vial containing a 2 cm stir bar, Compound I Polymorph J (0.5 g, sample shown in FIG. 1), MeOH (5.6 mL, 11.25 vol) and PPW (1.9 mL, 3.75 vol) were charged. The resulting mixture was heated to 65° C. for 6 hrs. Upon completion, the slurry was filtered through a Buchner funnel, and the solid was collected for XRPD analysis as shown in FIG. 8.
# As described in Example 1, Polymorph J crystals precipitated out around pH 9-10 during final pH adjustment step to pH 12-13. Polymorph J is then heated to 60° C. to 65° C. in MeOH/PPW (3:1) for approximately 4 hours and maintains its polymorphic form. Thus, substantially pure (polymorphic purity) Polymorph J in MeOH/PPW (3:1) is stable at 65° C. for at least 4 hours.
# [4] = Heating of Polymorph J without solvent at 205° C.; format: physicochemical; conditions: 30 minutes
# [5] = Quick solubility analysis in pH 4.5 buffer; format: physicochemical; conditions: pH 4.5 buffer solution (25 mM sodium acetate, 25° C.), filtered, LC, pH changed to 5-6
# Procedure: A quick solubility analysis was conducted on Compound I Polymorphs A and J (Table 3). Each sample was suspended in pH 4.5 buffer solution (25 mM sodium acetate, 25° C.) for 10 minutes and then filtered for LC (liquid chromatography) analysis.
# BRCA deficient cells = assay: Toxicity against BRCA deficient cells; format: cell-based; conditions: cell lines of different genetic backgrounds (colon, breast and ovary), mouse and human
# [6] = test system: BRCA2 knockout tumor cells; assay: Xenograft model, BRCA2 knockout vs isogenic wild type; format: in vivo; conditions: BRCA2 knockout tumor cells in xenograft model compared with isogenic wild type control cells
# metastatic breast cancer = assay: Evaluation of predictive biomarkers of response to Compound I in patients; format: in vivo, human
# Procedure: The duration on therapy at each dose level for evaluable patients is depicted in FIG. 15. 18 patients were diagnosed with metastatic breast cancer. […] This study was conducted to evaluate predictive biomarkers of response to Compound I and to explore the relationship between germline HRD aberrations and outcomes of Compound I treatments.
compound,measurement,setting,value
"Cc1cnc(CNC(=O)c2c(=O)c3ccc(N4CCCN(C)CC4)nc3n3c2sc2ccccc23)cn1 [Polymorph K, 2-(4-Methyl-[1,4]diazepan-1-yl)-5-oxo-5H-7-thia-1,11b-diaza-benzo[c]fluorene-6-carboxylic acid (5-methyl-pyrazin-2-ylmethyl)-amide]",Polymorphic conversion upon prolonged heating,[1],converts to Polymorph A
"Cc1cnc(CNC(=O)c2c(=O)c3ccc(N4CCCN(C)CC4)nc3n3c2sc2ccccc23)cn1 [Polymorph J, 2-(4-Methyl-[1,4]diazepan-1-yl)-5-oxo-5H-7-thia-1,11b-diaza-benzo[c]fluorene-6-carboxylic acid (5-methyl-pyrazin-2-ylmethyl)-amide]",Time stable on storage,[2],at least 18 months
same,Shift of second endothermic DSC peak after storage versus initial sample,[2]; 18 months,about 5 °C
same,XRPD pattern after storage,[2]; 18 months,substantially similar to the XRPD pattern of the initial sample
same,Polymorphic form by XRPD after heating,"[3]; MeOH/PPW, 65° C., 6 hrs",converted to Polymorph A
same,Time polymorphic form is stable,[3]; substantially pure Polymorph J in MeOH/PPW (3:1) at 65° C.,at least 4 hours
same,Crystallinity by XRPD after heating,[4],less crystalline
same,Solubility,[5]; 10 minutes,28.6 mg/mL
"Cc1cnc(CNC(=O)c2c(=O)c3ccc(N4CCCN(C)CC4)nc3n3c2sc2ccccc23)cn1 [Compound I, 2-(4-Methyl-[1,4]diazepan-1-yl)-5-oxo-5H-7-thia-1,11b-diaza-benzo[c]fluorene-6-carboxylic acid (5-methyl-pyrazin-2-ylmethyl)-amide]",Toxicity against BRCA deficient cells,BRCA deficient cells,specific toxicity against BRCA deficient cells
same,Therapeutic index of activity,[6],wide therapeutic index of activity
same,Response to treatment,"metastatic breast cancer; patient with PALB2 mutation and BRCA2 mutation, 650 mg/m^2 on Day 1, Day 8, Day 15 of a 28 day cycle",partial response (PR)
same,Tumor shrinkage,"metastatic breast cancer; patients with BRCA2 mutation, dose greater than or equal to 150 mg/m^2",tumor shrinkage were observed
"Cc1cnc(CNC(=O)c2c(=O)c3ccc(N4CCCN(C)CC4)nc3n3c2sc2ccccc23)cn1 [Polymorph A, 2-(4-Methyl-[1,4]diazepan-1-yl)-5-oxo-5H-7-thia-1,11b-diaza-benzo[c]fluorene-6-carboxylic acid (5-methyl-pyrazin-2-ylmethyl)-amide]",Relative thermodynamic stability of polymorphs,"[3]; MeOH/PPW, 65° C.",more thermodynamically stable than Polymorph J
same,solubility at 10 min,"[5]; sodium acetate buffer, 25 °C, pH 4.5, aqueous buffer, thermodynamic from solid",29.3 mg/mL
